Laboratory results: PubChem BioAssay (NCI)
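These data come from cells grown in 96-well plates and exposed to compound for 48 hours at five concentrations. GI50 = concentration required for 50% inhibition of growth. TGI denotes the concentration required for complete inhibition of growth.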

Columns and labels:
Test in all cases: NCI-60 cell line screen, 48 h
HOP-92 NSCLC = test system: HOP-92 NSCLC
SK-OV-3 ovarian = test system: SK-OV-3 ovarian
T-47D breast = test system: T-47D breast
UACC-62 melanoma = test system: UACC-62 melanoma
DU-145 prostate = test system: DU-145 prostate
UACC-257 melanoma = test system: UACC-257 melanoma
ACHN renal = test system: ACHN renal
CAKI-1 renal = test system: CAKI-1 renal
SK-MEL-2 melanoma = test system: SK-MEL-2 melanoma
HS 578T breast = test system: HS 578T breast

In the case of `Cc1cc(Nc2ccc(Cl)cc2)nc(NCCCNc2ccnc3cc(Cl)ccc23)n1`, the GI50 (HOP-92 NSCLC) is reported as 1.01 µM, the TGI (HOP-92 NSCLC) is reported as 2.53 µM and the GI50 (SK-OV-3 ovarian) is reported as 1.65 µM. It also gave a TGI (SK-OV-3 ovarian) of 3.01 µM, a GI50 (T-47D breast) of 1.83 µM and a TGI (T-47D breast) of 3.81 µM. The GI50 (UACC-62 melanoma) was 1.79 µM, the TGI (UACC-62 melanoma) was 3.58 µM and the GI50 (DU-145 prostate) was 1.84 µM. The TGI (DU-145 prostate) was 3.35 µM, the GI50 (UACC-257 melanoma) was 1.8 µM and the TGI (UACC-257 melanoma) was 3.39 µM. The GI50 (ACHN renal) was 1.63 µM, the TGI (ACHN renal) was 3.06 µM and the GI50 (CAKI-1 renal) was 1.53 µM. It also gave a TGI (CAKI-1 renal) of 2.9 µM, a GI50 (SK-MEL-2 melanoma) of 1.86 µM and a TGI (SK-MEL-2 melanoma) of 3.57 µM. The GI50 (HS 578T breast) was 1.84 µM and the TGI (HS 578T breast) was 3.98 µM.
For `NC(Cc1ccccc1CP(=O)(O)O)C(=O)O` (stereo not given), the TGI (HOP-92 NSCLC) was > 100 µM, the TGI (SK-OV-3 ovarian) was > 100 µM and the TGI (T-47D breast) was > 100 µM. For the same compound, the TGI (UACC-62 melanoma) was > 100 µM, the TGI (DU-145 prostate) was > 100 µM and the TGI (UACC-257 melanoma) was > 100 µM. The TGI (ACHN renal) was > 100 µM, the TGI (CAKI-1 renal) was > 100 µM and the TGI (SK-MEL-2 melanoma) was > 100 µM. The TGI (HS 578T breast) was > 100 µM.
With `C/C(=N\NC(=S)N1CCOCC1)c1nc2ncccc2[nH]1` the TGI (HOP-92 NSCLC) was 68 µM, the TGI (SK-OV-3 ovarian) was > 100 µM and the TGI (T-47D breast) was > 100 µM. For the same compound, the TGI (UACC-62 melanoma) was > 100 µM, the TGI (DU-145 prostate) was > 100 µM and the TGI (UACC-257 melanoma) was 77.4 µM. For the same compound, the TGI (ACHN renal) was > 100 µM, the TGI (CAKI-1 renal) was > 100 µM and the TGI (SK-MEL-2 melanoma) was 69.4 µM. For the same compound, the TGI (HS 578T breast) was > 100 µM.
